Assay results reported in publication PMC5361186 (Scientific Reports, 2017).
Where “and” joins values, the source holds several entries; their conditions need not be identical. Equal entries are not always repeated. One block for each substance: values may come before it. No end group written: not given here.

Key:
α-chymotrypsin [1] = target: T1, α-chymotrypsin (Bos taurus, UniProt P00766, DEL14-15/DEL147-148); test: Resistance to chymotryptic cleavage; type: in vitro ADME, bovine pancreas; conditions: peptide 10 μg/ml, 0.1 mol/L TRIS-HCl pH 7.8, urea 120 mg/mL, α-chymotrypsin E:P 1:200, 24 h, 37 °C
T1 construct: purchased Sigma-Aldrich (Steinheim, Germany)
Description: Preliminary experiments using a combination of pepsin and trypsin/chymotrypsin (PTC) for enzymatic hydrolysis were performed with the 33-mer. This PTC hydrolysate of the 33-mer was analysed by untargeted LC-MS/MS followed by data evaluation using the MS/MS ions search module of the Mascot software based on the NCBI database (National Library of Medicine, Bethesda, MD, USA). In addition to the original 33-mer, the truncated forms after N-terminal removal of leucine resulting in a 32-mer (m/z 950.0, 4+ and m/z 1266.3, 3+) and pyro-32-mer (m/z 945.7, 4+ and m/z 1260.6, 3+) were identified, but no 30-mer (m/z 889.7, 4+ and m/z 1185.9, 3+) after potential removal of N-terminal LQL. The ratio 33-mer/32-mer/pyro-32-mer was about 12/76/12. To see whether cleavage of the N-terminal leucine could be minimised, only chymotrypsin was used for further experiments. Therefore, the 33-mer peptide was incubated with chymotrypsin using exactly the same conditions as described for the samples to check its resistance towards cleavage, because it contains two potential chymotryptic cleavage sites at positions L1 and L3. […] Full MS/MS scans were also done for the chymotryptic hydrolysates of the albumin/globulin and gliadin fractions obtained from wheat cv. MJO. […] This is consistent with the original report by Shan et al.[4] who only observed pepsin-catalysed cleavage of the N-terminal leucine. Additionally, no analyte loss is expected to take place during sample preparation, which involves the removal of albumins/globulins.
(§1) First, flours (150–200 mg) were defatted with pentane/ethanol (95/5, v/v; 2 × 2.0 mL)[40]. The gliadin fractions from the different defatted flours were extracted as described above. […] The obtained peptide mixture was dried using a vacuum centrifuge (40 °C, 6 h, 800 Pa), re-dissolved in FA (0.1%, v/v, 500 μL), filtered (0.45 μm) and analysed by targeted LC-MS/MS. […] MJO, which were all analysed by untargeted LC-MS/MS. […]

α-chymotrypsin [2] = test: α-chymotrypsin (E:P ratio of 1:200) in TRIS-HCl-buffer (0.1 mol/L TRIS-HCl, pH 7.8, urea 120 mg/mL); conditions: bovine pancreas, 37 °C, up to 24 h
[3] = test system: tissue transglutaminase (TG2); test: tissue transglutaminase (TG2); conditions: cited from earlier work
[4] = test system: pepsin and trypsin/chymotrypsin (PTC); test: pepsin (in 0.01 mol/L HCl, pH 2.0, E:P ratio of 1:25) followed by trypsin and α-chymotrypsin (in 0.05 mol/L phosphate buffer, pH 6.5, E:P ratio of 1:200); conditions: porcine gastric mucosa (pepsin); bovine pancreas (trypsin, α-chymotrypsin), 37 °C, up to 60 min (pepsin) followed by 120 min (trypsin and α-chymotrypsin)
pepsin = test: pepsin; conditions: cited from earlier work
intestinal peptidases [5] = test: intestinal peptidases; conditions: cited from earlier work
intestinal peptidases [6] = conditions: 5 (Shan et al. 2002); cited from earlier work
Excerpt: All gluten protein fractions, namely the alcohol-soluble prolamins and the insoluble glutelins, contain CD-active epitopes. The prolamin fraction is particularly rich in proline and glutamine and the numerous proline residues lead to a high resistance to complete proteolytic digestion by human gastric, pancreatic, and brushborder enzymes. […] The 33-mer is widely ca ...

[7] = test system: pepsin and trypsin/chymotrypsin (PTC); test: Enzymatic hydrolysis of the 33-mer with pepsin and trypsin/chymotrypsin (PTC); type: in vitro ADME; conditions: untargeted LC-MS/MS
Description: Preliminary experiments using a combination of pepsin and trypsin/chymotrypsin (PTC) for enzymatic hydrolysis were performed with the 33-mer. This PTC hydrolysate of the 33-mer was analysed by untargeted LC-MS/MS followed by data evaluation using the MS/MS ions search module of the Mascot software based on the NCBI database (National Library of Medicine, Bethesda, MD, USA). In addition to the original 33-mer, the truncated forms after N-terminal removal of leucine resulting in a 32-mer (m/z 950.0, 4+ and m/z 1266.3, 3+) and pyro-32-mer (m/z 945.7, 4+ and m/z 1260.6, 3+) were identified, but no 30-mer (m/z 889.7, 4+ and m/z 1185.9, 3+) after potential removal of N-terminal LQL. The ratio 33-mer/32-mer/pyro-32-mer was about 12/76/12. To see whether cleavage of the N-terminal leucine could be minimised, only chymotrypsin was used for further experiments. […]
as §1, with “mL)[40].” for “mL)[40]. The gliadin fractions from the different defatted flours were extracted as described above.”

stability towards chymotryptic cleavage, looking for *32-mer, pyro-*32-mer and *30-mer (α-chymotrypsin [1]; full MS/MS scans): stable under the conditions applied
Substance: LQLQP*FPQPQLPYPQPQLPYPQPQLPYPQ*PQ*P*F [*33-mer, [13C28]- and [15N4]-labelled 33-mer peptide used as isotopically labelled internal standard]

cleaved bond [4]: leucine1-Q
fragment found [4]: pyro-32-mer
not cleaved [4]: no 30-mer identified
Substance: LQLQPFPQPQLPYPQPQLPYPQPQLPYPQPQPF
not cleaved (α-chymotrypsin [2]): no detectable amounts of 32-mer, pyro-32-mer or 30-mer, only the intact 33-mer
fragment found [3]: 33-mer deamidated at glutamine 72 and 33-mer deamidated at glutamine 65
cleaved bond (pepsin): leucine1-Q
not cleaved (intestinal peptidases [5]): resistant to cleavage by intestinal peptidases

forms detected after incubation with chymotrypsin, full MS/MS scans of the m/z of 32-mer, pyro-32-mer and 30-mer (α-chymotrypsin [1]; full MS/MS scans, target mass ± 1): only the intact 33-mer
truncated forms after incubation with chymotrypsin, untargeted LC-MS/MS (α-chymotrypsin [1]; untargeted LC-MS/MS): no truncated forms
ratio 33-mer/32-mer/pyro-32-mer in the PTC hydrolysate ([7]; pepsin in 0.01 mol/L HCl, pH 2.0, 60 min, 37 °C, E:P 1:25, then trypsin and α-chymotrypsin in 0.05 mol/L phosphate buffer, pH 6.5, 120 min, 37 °C, E:P 1:200, Mascot, preliminary experiments): about 12/76/12
30-mer after potential removal of N-terminal LQL in the PTC hydrolysate ([7]; same PTC conditions as E1): no 30-mer
Substance: LQLQPFPQPQLPYPQPQLPYPQPQLPYPQPQPF [33-mer]
cleavage by intestinal peptidases (intestinal peptidases [6]): resistant to cleavage by intestinal peptidases
